Key:
Type in all cases: cell-based
[1] = system: fungal mix consisting of Aspergillus brasiliensis DSM 1988, Rhodotorula mucilaginosa DSM 13621, Yarrowialipolytica DSM 8218; experiment: Example 1.2: preservative activity in a manual dishwashing composition (MDW, pH 7.1) using 2-phenoxyethanol (PE), fungal challenge; settings: for d7 CFU: day 7; for d14 CFU: day 14; for d21 CFU: day 21
Method: (§1) A manual dish wash detergent (MWD) of pH 7.1 containing the following components was used:
(§2) The samples were contaminated with a fungal mix consisting of: • Aspergillus brasiliensis DSM 1988 • Rhodotorula mucilaginosa DSM 13621 • Yarrowialipolytica DSM 8218
(§3) The samples were inoculated with the fungal mix at day 0 and 7 to obtain 1-3×10E+05 CFU/ml inoculation in the test sample consisting of the above-defined dish wash detergent MDW and stored at 25° C. for 21 days. CFU was determined before re-inoculation at day 7, and on days 14 and 21.
(§4) Any CFU value at d7, d14 or d21 obtained with a MDW sample of the invention containing 2-phenoxyethanol and lactone (MDW+1.0% PE+x % of Lactone) lower than the respective value of the “comparative 2” example (MDW+1.0% by weight of 2-Phenoxyethanol) indicates a better performance of the inventive combination of 2-phenoxyethanol with the lactone.

[2] = system: bacterial mix consisting of Escherichia coli DSM 1576, Alcaligenes faecalis DSM 13644, Pseudomonas aeruginosa ATCC 15442, Staphylococcus aureus ATCC 6538 …; experiment: Example 2.3: preservative activity of a basic composition (pH 7, 10% PG) using 1,2-benzisothiazol-3(2H)-one (BIT), bacterial challenge; settings: day 7
Method: An aqueous composition of pH 7 comprising 10% by weight of propyleneglycol (PG) as organic solvent, 0.004% by weight of 1,2-benzisothiazol-3(2H)-one (BIT) as antimicrobial and the lactone listed in the below table was tested for its preserving activity against bacterial contamination (the weight percentages relate to the total weight of the composition). For this purpose, the samples were contaminated with a bacterial mix consisting of: • Escherichia coli DSM 1576 • Alcaligenes faecalis DSM 13644 • Pseudomonas aeruginosa ATCC 15442 • Staphylococcus aureus ATCC 6538 • Burkholderia cepacia DSM 7288 • Pseudomonas putida DSM 12735
The samples were inoculated with the bacterial mix at day 0 to obtain 10E+06 to 10E+07 CFU/ml inoculation in the test sample and stored at 25° C. for 7 days.
(§5) CFU was determined at day 7.
Any CFU value at day 7 (d7) obtained with a sample according to the invention containing BIT and lactone (10% PG+0.004% BIT+x % of Lactone) that is lower than the respective value of the “comparative 2” example (10% PG+0.004% BIT) indicates a better performance.

[3] = system: Pseudomonas aeruginosa ATCC 15442; experiment: Example 2.4: preservative activity of a basic composition (pH 5, 10% PG) using sodium benzoate, bacterial challenge; settings: day 7
Method: An aqueous composition of pH 5 comprising 10% by weight of propyleneglycol (PG) as organic solvent, sodium benzoate as antimicrobial and 0.18% by weight of γ-valerolactone was tested for its preserving activity against bacterial contamination (the weight percentages relate to the total weight of the composition). For this purpose, the samples were contaminated with a bacterial suspension of Pseudomonas aeruginosa ATCC 15442.
The samples were inoculated with the bacterial suspension at day 0 to obtain 6.1×10E+07 CFU/ml inoculation in the test sample and stored at 25° C. for 7 days.
as §5
Any CFU value at day 7 (d7) obtained with a sample according to the invention containing sodium benzoate and lactone (10% PG+x % sodium benzoate+0.18% of Lactone) lower than the respective value of the “comparative 2” example (10% PG+0.5% sodium benzoate) or “comparative 3” example (10% PG+0.85% sodium benzoate) indicates a better performance.

[4] = system: bacterial mix consisting of Escherichia coli DSM 1576, Alcaligenes faecalis DSM 13644, Pseudomonas aeruginosa ATCC 15442, Staphylococcus aureus ATCC 6538 …; experiment: Example 2.1: preservative activity in a manual dishwashing composition (MDW, pH 7.1) using 2-phenoxyethanol (PE), bacterial challenge; settings: for d7 CFU: day 7; for d14 CFU: day 14; for d21 CFU: day 21
Method: as §1
The samples were contaminated with a bacterial mix consisting of: • Escherichia coli DSM 1576 • Alcaligenes faecalis DSM 13644 • Pseudomonas aeruginosa ATCC 15442 • Staphylococcus aureus ATCC 6538 • Burkholderia cepacia DSM 7288 • Pseudomonas putida DSM 12735
The samples were inoculated with the bacterial mix at day 0 and 7 to obtain 10E+06 to 10E+07 CFU/ml inoculation in the test sample and stored at 25° C. for 21 days. CFU was determined before re-inoculation at day 7 and on days 14 and 21.
Any CFU value at day 7 (d7), day 14 (d14) or day 21 (d21) obtained with a sample according to the invention containing 2-phenoxyethanol and lactone (MDW+1.0% PE+x % Lactone) lower than the respective value of the “comparative 2” example (MDW+1.0% by weight of 2-Phenoxyethanol) indicates a better performance.

[5] = system: fungal mix consisting of Aspergillus brasiliensis DSM 1988, Rhodotorula mucilaginosa DSM 13621, Yarrowialipolytica DSM 8218; experiment: Example 1.3: preservative activity in a manual dishwashing composition (MDW, pH 7.1) using 2-phenoxyethanol (PE), fungal challenge; settings: for d7 CFU: day 7; for d14 CFU: day 14; for d21 CFU: day 21
Method: as §1, §2, §3, §4

[6] = MDW + 1.0% PE + 1% of lactone, fungal mix
[7] = MDW + 1.0% PE + 2% of lactone, fungal mix
[8] = MDW pH 7.1 + 1.0% of the substance alone (comparative), fungal mix inoculated day 0 and 7, 25° C.
[9] = MDW pH 7.1 + 1.0% of the substance alone (comparative), bacterial mix inoculated day 0 and 7, 25° C.
[10] = MDW pH 7.1 + 1.0% of the substance alone (comparative), bacterial mix
[11] = MDW + 1.0% PE + 1% of lactone, bacterial mix
[12] = MDW pH 7.1 + 1.0% of the substance alone (comparative), fungal mix

For CC1CCC(=O)O1 (centres unmarked) [γ-valerolactone], the “d7 CFU” value [1, 6] was 3,500 CFU, the “d14 CFU” value [1, 6] was 3,600 CFU and the “d21 CFU” value [1, 6] was 385 CFU. The “d7 CFU” value [1, 7] was 85 CFU, the “d14 CFU” value [1, 7] was 95 CFU and the “d21 CFU” value [1, 7] was under 10 CFU. The “d7 CFU” value [1, 8] was 12,000 CFU, the “d14 CFU” value [1, 8] was 24,500 CFU and the “d21 CFU” value [1, 8] was 2,500 CFU. The “d7 [CFU/ml]” value ([2]; 10% PG + 0.004% BIT + 0.04% of lactone) was 145 CFU/ml, the “d7 [CFU/ml]” value ([2]; 10% PG, pH 7 + 0.04% lactone alone (Comparative 1), 25° C.) was >100,000 CFU/ml and the “d7 [CFU/ml]” value ([3]; 10% PG + 0.5% sodium benzoate + 0.18% of lactone) was 990 CFU/ml. For the same molecule, the “d7 [CFU/ml]” value ([3]; 10% PG + 0.85% sodium benzoate + 0.18% of lactone) was 890 CFU/ml and the “d7 [CFU/ml]” value ([3]; 10% PG, pH 5 + 0.18% lactone alone (Comparative 1), P. aeruginosa, 25° C.) was >100,000 CFU/ml.
In the case of CCCCCC1CCC(=O)O1 (centres unmarked) [Y-Nonalactone], the “d7 CFU” value [4, 9] is reported as 8,400 CFU, the “d14 CFU” value [4, 10] is reported as >100,000 CFU and the “d21 CFU” value [4, 10] is reported as >100,000 CFU.
In the case of CCCCCC1CCC(=O)O1 (centres unmarked) [y-Nonalactone], the “d7 CFU” value [4, 11] is reported as under 10 CFU, the “d14 CFU” value [4, 11] is reported as under 10 CFU and the “d21 CFU” value [4, 11] is reported as under 10 CFU.
In the case of CCCCCC1CCC(=O)O1 (centres unmarked) [γ-nonalactone], the “d7 CFU” value [5, 6] is reported as 4,100 CFU, the “d14 CFU” value [5, 6] is reported as 5,000 CFU and the “d21 CFU” value [5, 6] is reported as 150 CFU. For the same molecule, the “d7 CFU” value [5, 8] was >100,000 CFU, the “d14 CFU” value [5, 12] was >100,000 CFU and the “d21 CFU” value [5, 12] was >100,000 CFU.
With O=c1[nH]sc2ccccc12 [BIT, 1,2-benzisothiazol-3(2H)-one, reference compound] the “d7 [CFU/ml]” value ([2]; 10% PG, pH 7 + 0.004% BIT alone (Comparative 2)) was >100,000 CFU/ml.
CCCCCCC1CCC(=O)O1 (centres unmarked) [y-Decalactone] was tested, and the “d7 CFU” value [4, 11] was under 10 CFU, the “d14 CFU” value [4, 11] was under 10 CFU and the “d21 CFU” value [4, 11] was under 10 CFU. For the same molecule, the “d7 CFU” value [4, 9] was >100,000 CFU, the “d14 CFU” value [4, 10] was >100,000 CFU and the “d21 CFU” value [4, 10] was >100,000 CFU.
OCCOc1ccccc1 [Phenoxyethanol (PE)] was tested, and the “d7 CFU” value [1, 8] was 34,500 CFU, the “d14 CFU” value [1, 8] was 16,500 CFU and the “d21 CFU” value [1, 8] was 3,800 CFU. The “d7 CFU” value [5, 8] was >100,000 CFU, the “d14 CFU” value [5, 12] was >100,000 CFU and the “d21 CFU” value [5, 12] was >100,000 CFU. For the same molecule, the “d7 CFU” value [4, 9] was 625 CFU, the “d14 CFU” value [4, 10] was >100,000 CFU and the “d21 CFU” value [4, 10] was >100,000 CFU.
For CCCCCCC1CCC(=O)O1 (centres unmarked) [γ-Decalactone], the “d7 CFU” value [5, 6] was 24,500 CFU, the “d14 CFU” value [5, 6] was 13,000 CFU and the “d21 CFU” value [5, 6] was 1200 CFU. For the same molecule, the “d7 CFU” value [5, 8] was >100,000 CFU, the “d14 CFU” value [5, 12] was >100,000 CFU and the “d21 CFU” value [5, 12] was >100,000 CFU.
For O=C([O-])c1ccccc1.[Na+] [sodium benzoate, reference compound], the “d7 [CFU/ml]” value ([3]; 10% PG, pH 5 + 0.5% sodium benzoate alone (Comparative 2)) was >100,000 CFU/ml and the “d7 [CFU/ml]” value ([3]; 10% PG, pH 5 + 0.85% sodium benzoate alone (Comparative 3)) was >100,000 CFU/ml.

— patent US20250234861A1, “LACTONES FOR ENHANCING THE ACTIVITY OF ANTIMICROBIAL AGENTS” (BASF SE, priority 2021, published 2025)
